Source: patent US20230012420A1, “METHODS AND COMPOSTIONS FOR INHIBITING P97” (California Institute of Technology, priority 2021, published 2023)

Assays:
Format in all cases: cell-based, human
[1] = tested on: p97^R155H/+ MNs; experiment: Proteomic analysis (LC-MS/MS) of D20 MNs after p97 inhibitor treatment; conditions: for Tau and MCM6 (proteomics): 6 days of treatment, 400 nM; for number of the 440 downregulated proteins that were increased after treatment / number of the 920 upregulated proteins that were reduced after treatment: 6 days, count stated for treatment with CB-5083 or NMS-873 (FIG. 5E)
Protocol: The maturation of MNs was followed using a 14 day protocol from BrainXell. Briefly, the MNs were thawed and plated on poly-lysine (Sigma, cat #P7886) coated plates in MN maturation medium containing DMEM/F12 (Gibco, cat #11330-032) and neurobasal medium (1:1 v/v), 2% 50× B27, 1% 100× N2, 0.25% 100× Glutamax, 10 ng/mL BDNF (Peprotech, cat #450-02), 10 ng/mL GDNF(Peprotech, cat #450-10), 1 ng/mL TGF-β1 (Peprotech, cat #100-21c), and 1× Brainfast supplement (BrainXell). The medium was changed with the same medium containing 15 μg/mL geltrex on day 1. An equal volume of maturation medium (excluding Geltrex) was added on day 4. Half of the medium (excluding the Brainfast supplement and Geltrex) was changed twice weekly from day 7. The MNs can be maintained for at least three weeks. […] NMS-873, cat #406458), or same volume of DMSO at D14, and then incubated for 6 days. The cells were harvested on D20. After culture, MN cells were scraped off the plates, washed with DPBS, and centrifuged at 300 g for 4 min to remove supernatant. Pellets were frozen at -80° C. The mass spec samples were prepared by following instructions for the […] Sample Prep Kit (Thermo Scientific, cat #A4006). Samples were dried using a vacuum centrifuge and resuspended in 0.1% formic acid (Thermo, cat #85178) water solution. Peptide concentrations were measured using the Quantitative Fluorometric Peptide Assay kit (Thermo, cat #23290). LC-MS/MS experiments were performed by loading 0.5 μg sample onto an EASY-nLC 1000 (Thermo Scientific) connected to an Orbitrap Eclipse Tribrid mass spectrometer (Thermo Scientific). Peptides were separated on an Aurora UHPLC Column (25 cm×75 μm, 1.6 μm C18, AUR2-25075C18A, Ion Opticks) with a flow rate of 0.4 μL/min and a total duration time of 131 min following the gradient composed of 3% Solvent B for 1 min, 3-19% B for 72 min, 19-29% B for 28 min, 29-41% B for 20 min, 41-95% B for 3 min, and 95-98% B for 7 min. Solvent A consists of 97.8% H2O, 2% ACN, and 0.2% formic acid; solvent B consists of 19.8% H2O, 80% ACN, and 0.2% formic acid. MS1 scans were acquired with a range of 400-1600 m/z in the Orbitrap at 120 k resolution. The maximum injection time was 50 ms, and the AGC target was 2×105. The filter dynamic exclusion was set to exclude after 1 time, 30 s duration, and 10 ppm mass tolerance. MS2 scans were acquired with quadrupole isolation mode and higher-energy collisional dissociation (HCD) activation type in the Iontrap. The isolation window was 1.4 m/z, collision energy was 35%, maximum injection time was 35 ms, and the AGC target was 1×104. Other global settings were as below: ion source type, NSI; spray voltage, positive ion 2400 V, negative ion 600 V; ion transfer tube temperature, 300° C. Method modifications and data collection were performed using Xcalibur software (Thermo Scientific). Proteomic analysis was performed using Proteome Discoverer 2.4 (Thermo Scientific) software with the Uniprot human database and the SequestHT with Percolator validation. Protein abundance normalization was performed on total peptide. The data exported from PD2.4 were then used for further analysis. Limma analysis was performed using R studio following the user guide (Gordon, 2020). The volcano figures were plotted using Origin 2019b. PCA analyses were generated with PD2.4 and plotted using Prism 7. The Venn diagram was performed using FunRich 3.1. The heatmap figure was performed with prism 7. Functional enrichment analyses were performed with g:Profiler (Raudvere, 2019). The bubble plot was generated using Origin 2019b.

[2] = tested on: p97^R155H/+ MNs; experiment: Western blot of dysregulated protein levels after p97 inhibitor treatment; conditions: 400 nM for 6 days, 20 dpm (FIG. 5C)
Protocol: The maturation of MNs was followed using a 14 day protocol from BrainXell. Briefly, the MNs were thawed and plated on poly-lysine (Sigma, cat #P7886) coated plates in MN maturation medium containing DMEM/F12 (Gibco, cat #11330-032) and neurobasal medium (1:1 v/v), 2% 50× B27, 1% 100× N2, 0.25% 100× Glutamax, 10 ng/mL BDNF (Peprotech, cat #450-02), 10 ng/mL GDNF(Peprotech, cat #450-10), 1 ng/mL TGF-β1 (Peprotech, cat #100-21c), and 1× Brainfast supplement (BrainXell). The medium was changed with the same medium containing 15 μg/mL geltrex on day 1. An equal volume of maturation medium (excluding Geltrex) was added on day 4. Half of the medium (excluding the Brainfast supplement and Geltrex) was changed twice weekly from day 7. The MNs can be maintained for at least three weeks. […] NMS-873, cat #406458), or same volume of DMSO at D14, and then incubated for 6 days. The cells were harvested on D20. MN cells were scraped off plates, washed with DPBS, and centrifuged at 300 g for 4 min to remove supernatant. Pellets were frozen at −80° C. Pellets were resuspended with 100 lysis buffer (50 mM Tris-HCl pH 8.0, 150 mM NaCl, 1% Triton X-100 with protease inhibitor tablet, 50 μM MG132, and 50 mM NEM), and incubated on ice for 10 min with occasional vortexing. After that, samples were centrifuged at 15000 rpm at 4° C. for 10 min and transferred 90 μL cell lysate into a 1.5 mL tube. Total soluble protein concentrations were measured using the Bradford test (Bio-Rad, cat #5000006). 30 μL 4×Laemmli sample buffer (Bio-Rad, cat #161-0774) was added and samples were boiled for 5 min. An equal amount of protein was loaded and separated using 4-20% Mini-PROTEAN TGX precast gels (Bio-Rad, cat #456-1096) and transferred to nitrocellulose membranes using Trans-Blot Turbo Transfer System (Bio-Rad, cat #170-4155). Membranes were blocked with 1×TBST with 5% w/v nonfat milk, incubated with primary antibodies for 2 h at room temperature or overnight at 4° C., and incubated with HRP-conjugated secondary antibodies (Bio-Rad, 1:3000 dilution) for 2 h at room temperature. […] The blot densities were analyzed using Image Lab 6.0.1 software (Bio-Rad).

[3] = tested on: iso p97^R155H/+ MNs; experiment: MN cell survival assay (live cell staining), isogenic mutant line; conditions: 100 nM for 6 days, vs DMSO (FIG. 5B)
Protocol: To compare p97 WT and […]/+ cells, MNs were thawed and plated on poly-lysine coated 96-well plates (Greiner, cat #655090) at a density of 1000 cells per 100 μL per well in MN maturation medium as described in the “motor neuron differentiation and maturation” section. Medium was changed with 100 μL of the same medium containing 15 μg/mL geltrex on day 1. 100 μL additional medium (excluding Geltrex) was added on day 4. Half of the medium (excluding the Brainfast supplement and Geltrex) was changed on day 7 and 11. 200 nM Ara-C was added to inhibit non-MN cells from proliferating. On day 14, the medium was replaced with N2 medium (DMEM/F12 and neurobasal medium, 1:1 v/v, 1% 100× N2). N2 medium was changed every six days. Cell viability was monitored every 3 or 4 days by staining with Calcein AM Viability Dye (Thermo, cat #65-0853-81), acquiring and analyzing images with ImageXpress Micro Confocal High-Content Imaging System (Molecular Devices). For p97 inhibitor treatment, MNs were plated on poly-lysine coated 384-well plates (Greiner, cat #781946) at a density of 500 cells per 30 μL per well. The same medium was used for plating and maintaining cells. Cell viability was monitored at day 1 and day 14. […]

[4] = tested on: p97^R155H/+ MNs; experiment: MN cell survival assay (Calcein AM live cell staining); conditions: 400 nM, treated at 14 dpm for 6 days, read at 20 dpm, vs DMSO (FIG. 5A)
Protocol: The maturation of MNs was followed using a 14 day protocol from BrainXell. Briefly, the MNs were thawed and plated on poly-lysine (Sigma, cat #P7886) coated plates in MN maturation medium containing DMEM/F12 (Gibco, cat #11330-032) and neurobasal medium (1:1 v/v), 2% 50× B27, 1% 100× N2, 0.25% 100× Glutamax, 10 ng/mL BDNF (Peprotech, cat #450-02), 10 ng/mL GDNF(Peprotech, cat #450-10), 1 ng/mL TGF-β1 (Peprotech, cat #100-21c), and 1× Brainfast supplement (BrainXell). The medium was changed with the same medium containing 15 μg/mL geltrex on day 1. An equal volume of maturation medium (excluding Geltrex) was added on day 4. Half of the medium (excluding the Brainfast supplement and Geltrex) was changed twice weekly from day 7. The MNs can be maintained for at least three weeks. […] NMS-873, cat #406458), or same volume of DMSO at D14, and then incubated for 6 days. The cells were harvested on D20. […] Cell viability was monitored every 3 or 4 days by staining with Calcein AM Viability Dye (Thermo, cat #65-0853-81), acquiring and analyzing images with ImageXpress Micro Confocal High-Content Imaging System (Molecular Devices). […] Cell viability was monitored at day 1 and day 14. […]

## Cc1cc2c(C(N)=O)cccc2n1-c1nc2c(c(NCc3ccccc3)n1)COCC2 [CB-5083]
[1]
  Tau and MCM6 (proteomics): reduced
  number of the 440 downregulated proteins that were increased after treatment: 192
  number of the 920 upregulated proteins that were reduced after treatment: 428
[2]
  LC3 level (western blot): slightly elevated
  protein levels of ISL1, NES, Tau, pTau, MCM6, p53, y-H2Ax (western blot): reversed increases
[3]
  loss of MNs (neuron loss, live cell staining): significantly reduced the loss of MNs
[4]
  loss of MNs (neuron loss, live cell staining): significantly reduced the loss of MNs

## Cc1cc(OCc2nnc(SC3CCCC3)n2-c2cccnc2)ccc1-c1ccc(S(C)(=O)=O)cc1 [NMS-873, 3-[3-cyclopentylsulfanyl-5-[[3-methyl-4-(4-methylsulfonylphenyl)phenoxy]methyl]-1,2,4-triazol-4-yl]pyridine]
[1]
  Tau and MCM6 (proteomics): reduced
  number of the 440 downregulated proteins that were increased after treatment: 192
  number of the 920 upregulated proteins that were reduced after treatment: 428
[2]
  LC3 level (western blot): slightly elevated
  protein levels of ISL1, NES, Tau, pTau, MCM6, p53, y-H2Ax (western blot): reversed increases
[3]
  loss of MNs (neuron loss, live cell staining): significantly reduced the loss of MNs
[4]
  loss of MNs (neuron loss, live cell staining): significantly reduced the loss of MNs
